Source: patent publication US20080171783A1, “COMPOSITIONS AND METHODS FOR TREATING HYPERPROLIFERATIVE DISEASE” (Migenix Inc., priority 2006, published 2008)
Like-named read-outs stand apart in the source and are kept apart here.

What was measured:
THP-1 = assay: Cell viability by XTT; settings: for Percentage of Cell Control: THP-1, single dose 10 μM, four days
Protocol: (§1) Compounds were solubilized at […] in DMSO and were stored at −20° C. Test compounds were initially tested at a single concentration of 10 μM and a subset of test compounds were further tested in selected cell lines using a six concentration dose response curve.
(§2) Cell Preparation Cancer cell lines were passaged in T-75 flasks prior to use in the assay in cell culture medium recommended by the ATCC (American Type Culture Collection; Table 6). On the day preceding the assay, the cells were split 1:2 to assure they were in an exponential growth phase at the time of compound treatment. Total cell and viability quantification was performed using a hemocytometer and Trypan Blue dye exclusion. […] The cells were resuspended at the appropriate cell per mL (Table 6) in tissue culture medium and added to the microtitre plates in a volume of 100 μL. Colon cell lines were incubated overnight at 37° C./5% CO2 to allow for cell adherence to the plates.
(§3) Plate Format: Each plate contains cell control wells (cells only), drug calorimetric control wells (drug only) as well as experimental wells (drug plus cells). Samples were tested in triplicate at a concentration of 10 μM and five half-logarithmic dilutions.
(§4) Cell Viability by XTT: Following incubation at 37° C. in a 5% CO2 incubator for four days, the test plates were stained with the tetrazolium dye XTT (2,3-bis(2-methoxy-4-nitro-5-sulfophenyl)-5-[(phenylamino)carbonyl]-2H-tetrazolium hydroxide). XTT-tetrazolium was metabolized by the mitochondrial enzymes of metabolically active cells to a soluble formazan product. XTT solution was prepared daily as a stock of 1 mg/mL in RPMI1640. Phenazine methosulfate (PMS) solution was prepared at 0.15 mg/mL in phosphate buffered saline (PBS) and stored in the dark at −20° C. XTT/PMS stock was prepared immediately before use by adding 40 μL of PMS per mL of XTT solution. Fifty (50) microlitres of XTT/PMS was added to each well of the plate and the plate was reincubated for 4 hours at 37° C. Plates were sealed with adhesive plate sealers and shaken gently or inverted several times to mix the soluble formazan product and the plate was read spectrophotometrically at 450/650 nm with a Molecular Devices Vmax plate reader. […] An Average Response Factor (ARF) was calculated for each compound by averaging the ten Percentage of Control values for the cell lines. […] Deviations below 100% control indicate activity. The concentration of each tested compound is 10 μM.

Jurkat = assay: Cell viability by XTT; settings: for Percentage of Cell Control: single dose 10 μM, four days
Protocol: as §1, §2, §3, §4

Caco-2 = assay: Cell viability by XTT; settings: for Percentage of Cell Control: Caco-2, single dose 10 μM, four days
Protocol: as §1, §2, §3, §4

HL-60 = assay: Cell viability by XTT; format: cell-based; settings: HL-60, single dose 10 μM, four days
Protocol: as §1, §2, §3, §4

HCT-15 = assay: Cell viability by XTT; format: cell-based; settings: HCT-15, single dose 10 μM, four days
Protocol: as §1, §2, §3, §4

[1] = test system: 5 Leukemia and 5 Colon Cancer Cell Lines; assay: Cell viability by XTT, cell line panel; format: cell-based; settings: for Range (Percentage of Control over the same 10 cell lines): lowest to highest of the ten cell lines
Method in brief: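 Leukemia and colon cancer lines in exponential growth were exposed to compounds for four days at 37 °C/5% CO2, with colon lines allowed overnight adherence beforehand. Viability read by XTT/PMS reduction (4 h) at 450/650 nm; percent of control at 10 μM averaged over ten lines as ARF.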

Calf polymerase alpha = biological target: T1, Calf polymerase alpha (Bos taurus, UniProt A0AAA9TD94); assay: Calf polymerase alpha inhibition (Replizyme kit); format: biochemical; settings: at 10 μM, single point screening
T1 construct: purchased Replizyme Ltd (Heslington, York, UK)
T1 sequence (A0AAA9TD94 1-1441): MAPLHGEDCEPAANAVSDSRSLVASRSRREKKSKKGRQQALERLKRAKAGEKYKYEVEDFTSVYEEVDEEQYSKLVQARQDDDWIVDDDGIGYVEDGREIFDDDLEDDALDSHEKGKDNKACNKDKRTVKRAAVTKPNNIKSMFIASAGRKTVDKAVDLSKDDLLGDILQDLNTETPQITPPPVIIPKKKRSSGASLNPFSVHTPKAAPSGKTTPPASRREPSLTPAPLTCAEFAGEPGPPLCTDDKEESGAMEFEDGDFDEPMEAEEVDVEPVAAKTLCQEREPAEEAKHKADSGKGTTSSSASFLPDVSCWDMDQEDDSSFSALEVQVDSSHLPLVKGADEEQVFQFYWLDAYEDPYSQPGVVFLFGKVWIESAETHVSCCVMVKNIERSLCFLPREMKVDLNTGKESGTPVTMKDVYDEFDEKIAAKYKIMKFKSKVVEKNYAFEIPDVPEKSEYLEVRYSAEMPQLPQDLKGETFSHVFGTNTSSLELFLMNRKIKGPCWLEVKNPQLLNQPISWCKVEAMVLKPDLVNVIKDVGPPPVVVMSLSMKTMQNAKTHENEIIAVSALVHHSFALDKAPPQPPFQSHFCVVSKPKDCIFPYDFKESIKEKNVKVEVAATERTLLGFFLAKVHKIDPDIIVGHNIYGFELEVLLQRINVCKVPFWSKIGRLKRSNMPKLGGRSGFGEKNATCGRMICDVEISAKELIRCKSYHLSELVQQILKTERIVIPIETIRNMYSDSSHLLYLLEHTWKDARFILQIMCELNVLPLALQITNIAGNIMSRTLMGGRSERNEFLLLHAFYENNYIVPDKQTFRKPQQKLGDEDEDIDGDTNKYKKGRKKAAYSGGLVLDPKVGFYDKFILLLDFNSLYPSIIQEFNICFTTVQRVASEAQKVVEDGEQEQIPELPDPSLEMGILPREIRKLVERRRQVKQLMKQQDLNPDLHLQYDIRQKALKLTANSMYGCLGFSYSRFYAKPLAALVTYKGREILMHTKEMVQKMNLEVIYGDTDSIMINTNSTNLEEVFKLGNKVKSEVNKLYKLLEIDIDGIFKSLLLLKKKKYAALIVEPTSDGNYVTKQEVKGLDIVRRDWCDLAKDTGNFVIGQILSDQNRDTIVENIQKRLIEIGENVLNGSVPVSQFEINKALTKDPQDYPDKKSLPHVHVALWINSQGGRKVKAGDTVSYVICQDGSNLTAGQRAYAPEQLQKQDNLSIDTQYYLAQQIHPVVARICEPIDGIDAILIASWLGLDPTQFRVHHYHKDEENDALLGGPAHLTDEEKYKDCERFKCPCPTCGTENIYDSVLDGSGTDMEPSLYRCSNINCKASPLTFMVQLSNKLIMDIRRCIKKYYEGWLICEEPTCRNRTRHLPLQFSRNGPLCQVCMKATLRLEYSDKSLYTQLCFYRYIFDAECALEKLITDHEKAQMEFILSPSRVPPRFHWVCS
Protocol: Calf polymerase alpha and human polymerase alpha investigations were performed with a kit available from Replizyme Ltd (Heslington, York, UK).

HT29 = assay: cells; settings: for Percentage of Cell Control: HT29, single dose 10 μM, four days
Protocol: as §1, §2, §3, §4

Compound	CC50 (THP-1; Homo sapiens, THP-1, read-out: Activity (TC50)) [µM]	Percentage of Cell Control (THP-1) [%]	CC50 (Jurkat; Homo sapiens, read-out: Activity (TC50)) [µM]	Percentage of Cell Control (Jurkat) [%]	Percentage of Cell Control (Caco-2) [%]	CC50 (Caco-2; Homo sapiens, Caco-2, read-out: Activity (TC50)) [µM]	Percentage of Cell Control (HL-60) [%]	Percentage of Cell Control (HCT-15) [%]	Range (Percentage of Control over the same 10 cell lines) ([1]; 10 μM) [%]	viability at 10 µM ([1]; average of the ten Percentage of Control values, read-out: ARF (Average Response Factor, Average Percentage of Control)) [%]	inhibition at 10 µM (Calf polymerase alpha) [%]	Percentage of Cell Control (HT29) [%]	CC50 (HT29; Homo sapiens, HT-29, read-out: Activity (TC50)) [µM]	CC50 (THP-1; read-out: Activity (TC50), THP-1, six concentration dose response, Table 9) [µM]	CC50 (Jurkat; read-out: Activity (TC50), six concentration dose response, Table 9) [µM]	CC50 (Caco-2; read-out: Activity (TC50), Caco-2, six concentration dose response, Table 9) [µM]	ARF (Average Response Factor, Average Percentage of Control) ([1]; 10 μM, average of the ten Percentage of Control values) [%]	% Inhibition (Calf polymerase alpha) [%]
NCCCC[C@H](NC(=O)OCC1c2ccccc2-c2ccccc21)C(=O)Nc1ccc(OCc2ccccc2)c(Cl)c1 [Compound 210, (S)-[5-AMINO-1-(4-BENZYLOXY-3-CHLORO-PHENYLCARBAMOYL)-PENTYL]-CARBAMIC ACID 9H-FLUOREN-9-YLMETHYL ESTER]	7.7	0	5.4	9.3	2.4	10	0.4	71.8	0 to 94.0	41.1	104	0	9.8					
Cc1ccc(NC(=O)[C@H](CCCCN)NCc2ccc(NC(=O)Nc3ccncc3)cc2)cc1 [Compound 262, (S)-6-AMINO-2-[4-(3-PYRIDIN-4-YL-UREIDO)-BENZYLAMINO]-HEXANOIC ACID P-TOLYLAMIDE]		49.4		3.1	21.6		53.1	75	3.1 to 121.1			63.8		7.9	5.5	8.7	69.4	102
